The values below come from a melting point compilation (Tetko et al.; mined from patent text by program, amines drawn as free bases though some values may be those of a salt).

As a reminder, the melting point is the temperature, or range, at which the solid turns liquid.

`CCCn1cc(C(=O)c2cccc3ccccc23)cc1C(=O)O`: the melting point is 145 °C. In the case of `COC(=O)c1ccc2c(nc(C)n2Cc2ccccc2)c1C(=O)OC` it was 192 to 195 °C. For the molecule `Cc1c(O)ccc2c1CCCC2=O`, the melting point was in the range of 195 to 197 °C. The result for `COC(=O)N=C(N)SC` reads 72 to 77 °C. Molecule `O=C(Nc1ccc(C(CC2CCCC2)C(=O)Nc2nccs2)cc1)c1ccc([N+](=O)[O-])cc1` (stereo not drawn) returned a melting point of 236 to 238 °C.

In the case of `CCOC(=O)c1cn(CC)c2cc(-c3csc(CN(CC)C(C)=O)n3)c(F)cc2c1=O`, the melting point is 160 to 161 °C. In the case of `CCOc1cc(C(=O)N2CCN(C(=O)C3=Cc4cc(OC)c(OC)cc4CCC3)CC2)cc(OCC)c1OCC` it was 125 to 126 °C; in that of `NC(=O)c1ccnc(-c2ccc(Oc3ccc(Cl)cc3F)cc2)n1`, 198 to 200 °C; in that of `CC(C)(C)OC(=O)NCC(O)CN` (stereo not drawn), 77 to 79 °C. In the case of `FC(F)c1ccc2c(c1)C(Cc1ccncc1)(Cc1ccncc1)c1ccccc1-2` it was above 300 °C; in that of `COC(=O)c1ccc(-c2ccc3cc(C(=O)OCc4ccccc4)c(C45CC6CC(CC(C6)C4)C5)cc3c2)cc1`, 143 to 144 °C. In the case of `O=C(NCC1Cc2cc(Br)cc3[nH]c(=O)c(=O)n1c23)c1ccccc1` (stereo not drawn) it was 180 to 182 °C. `COCCOc1nc(SC)c(C#N)c(N2CCc3ccccc3CC2)n1` registered a melting point of 108 to 111 °C.

`CN(CCCCCCO)c1ccc(N=Nc2ccc(S(C)(=O)=O)cc2)cc1` gave a melting point of 114 to 116 °C. The result for `O=C(NC(=O)c1c(F)cccc1F)Nc1cc(Br)c(F)c(Cl)c1F` reads 225 to 227 °C.

Molecule `c1ccc2c(c1)C[C@@H]1c3ccccc3N[C@H]21` (relative stereo) displayed a melting point of 107 °C. In the case of `O=C(O)c1cccc(SCc2c(O[C@H](Cn3ccnc3)c3ccccc3)ccc3c2CCCC3=O)c1` it was 225 °C. In the case of `CC(=O)NCCc1nc(-c2csc(N=C(N)N)n2)cs1` it was 226 to 227 °C. As for `CC1Cc2c(F)c(F)cc3c(=O)c(C(=O)O)cn(c23)N1C` (stereo not drawn), the melting point is 270 to 271 °C. Take `COc1ccc(-c2nc(C)[nH]c3cc(-c4ccccc4)nc2-3)cc1`: the melting point lay within 225 to 227 °C. In the case of `COC(=O)Cc1c(C)c2ccc(O)cc2oc1=O` it was 194 to 196 °C; in that of `CCCCNC(=O)C(=O)Nc1ccc(OC)cc1[N+](=O)[O-]`, 127 to 128 °C. In the case of `CC(=Nc1ccc2c(c1)C(=O)c1ccc(N=C(C)N3CCC(C)CC3)cc1C2=O)N1CCC(C)CC1` it was 200 to 202 °C; in that of `O=C(CCN1CCN(c2cccc(C(F)(F)F)c2)CC1)Nc1ccccc1[N+](=O)[O-]`, 185 to 188 °C; in that of `O=C(O)c1cc(C#Cc2ccccc2)cc2c1NCCC2`, 187 to 188 °C.

For `CCc1cc2c(s1)SCCc1cc(=O)n(-c3ccc(Cl)cc3)nc1-2`, the melting point was 127 to 128 °C. `C=CCN1CC(c2ccccc2)=C(OCCN(C)C)C1=O`: the melting point is 115 to 117 °C. In the case of `ClCc1ccc(-c2nsc3ccccc23)cc1` it was 86 to 89 °C. The result for `Nc1cc(Cl)c(S)cc1S(N)(=O)=O` reads 192 to 195 °C; that for `O=C(NN1CCCCC1)c1nn(-c2ccc(Cl)cc2Cl)c2c1CCc1sc(Br)cc1-2`, 145 °C. The result for `CN(CC=C(F)C(F)(F)C(F)(F)F)CCCCCC1Cc2cc(O)ccc2C2C(F)CC3(C)C(O)CCC3C12` (stereo not drawn) reads 122 °C; that for `O=S(=O)(CC(Cl)(c1ccccc1)c1cc(Cl)ccc1Cl)CC(Cl)(c1ccccc1)c1cc(Cl)ccc1Cl` (stereo not drawn), 136 °C; that for `C=Cc1ncn2c1CN(C)C(=O)c1c(Cl)cccc1-2`, 205 to 207 °C. The molecule `COc1cc2c(cc1N1CCN(CC3=CC4=CCSC4=C3)CC1)OCC2` came in with a melting point of 186 to 190 °C. The result for `CC(C)(C)OC(=O)NC1CCC(CON2C(=O)c3ccccc3C2=O)C1` (stereo not drawn) reads 162 to 163 °C; that for `COCCNc1c([N+](=O)[O-])cc(C(F)(F)F)c2sc(=O)sc12`, 96 to 98 °C; that for `COC(=O)C=CC=CCSc1ccc(N(C)C)cc1`, 68 to 70 °C.

`CC(C)c1ccc(-c2nc(=O)n(Cc3ccccc3)c3ccc(O)cc23)cc1` returned a melting point above 270 °C. In the case of `N#Cc1sc2cc([N+](=O)[O-])ccc2c1Cl` it was 204 to 205 °C. For the molecule `O=C(O)CCN1CCN(c2ccc([N+](=O)[O-])cc2)CC1`, the melting point is 250 to 252 °C. The result for `CCCCSc1nc2c(cc1C#N)C(=O)CC(C)(C)C2` reads 50 to 52 °C; that for `CCCCc1nc(Cl)c(C=O)n1Cc1ccc(-c2ccccc2-c2n[nH]c(=O)o2)cc1`, 178 to 179 °C. `C[Si](C)(C)c1cccc2cc(C(=O)Nc3ccc(N4CCC4)nc3)n(Cc3cccc(F)c3)c12` had a melting point of 160 to 162 °C.

Regarding `OC(=S)Cc1cccc2ccccc12`, the melting point turned out to be 106 °C.

As to `Cc1nc(-c2ccccc2)cc(-c2cccc([N+](=O)[O-])c2)c1CBr`, the melting point was 155 to 157 °C. The result for `COc1ccc(-c2nc(C(F)(F)F)cn2-c2ccc(Br)cc2)cc1` reads 140 to 141 °C. In the case of `Cn1nnnc1-c1cc(-c2ccc(F)cc2)sc1-c1ccc(F)cc1` it was 175 to 176 °C; in that of `COc1cc(CSc2ccc(O)cc2)cc(OC)c1O`, 128 °C. In the case of `C=CCCCn1ncc2c(OCC)c(C(=O)OCC)cnc21` it was 61 to 62 °C; in that of `CCSc1cc(=O)c2c(O)cc(O)c([C@H]3CCN(C)C[C@H]3O)c2o1` (relative stereo), 104 °C. Consider `O=C1C(=NO)SCCN1Cc1ccccc1`, for which the melting point was in the range of 225 to 227 °C.

In turn, `Cc1nc2ccccn2c1-c1csc(Nc2cccc(C(=O)Nc3ccccc3N)c2)n1` displayed a melting point of 195 to 197 °C.

With `CC(C)(C)OC(=O)N1CCC(N2Cc3ccccc3NC2=NC#N)CC1`, the melting point was 249 to 250 °C. The result for `CC(C)c1nc2c(cc1CO)COC(=O)N2c1ccc(F)cc1` reads 154 °C.

Take `Cc1cccc(NC(=O)OC(C)(C)C)c1CNc1cccn2c(C)c(C)nc12`: the melting point lay within 128 to 131 °C.

`NNC(=O)NC(c1cccc(Cl)c1)c1ccnc2ccccc12` (stereo not drawn) had a melting point of 187 °C. On to `O=C1NCCC[C@@H]1NS(=O)(=O)c1ccc(F)c(F)c1`, for which the melting point is 153 to 155 °C. `O=C(NC(Cc1ccccc1)c1ncc(C(F)(F)F)cc1Cl)c1c(Cl)cccc1Cl` (stereo not drawn) returned a melting point of 164 to 168 °C.

For the molecule `O=C(O)c1ccc(NCCCCc2cccs2)cc1`, the melting point fell in the range of 137 to 140 °C. The result for `Oc1ccc(O[C@@H]2CCNC[C@H]2O)cc1` (relative stereo) reads 176 to 178 °C. In the case of `CCCCNC(=O)Nc1ccccc1CCc1cc(C(C)(C)C)c(O)c(C(C)(C)C)c1` it was 133 to 134 °C. The result for `Cc1nc(N2N=C(c3ccc([N+](=O)[O-])cc3)c3cc4c(cc3CC2C)OCO4)no1` (stereo not drawn) reads 191 to 200 °C; that for `Cn1nc(-c2c(F)cccc2Cl)nc1-c1cc(-c2ccc(OC(F)(F)F)cc2)sc1Br`, 135 to 136 °C. For the molecule `O=C(Nc1cccc(C(F)(F)F)c1)Nc1ccc(Oc2ncnc3cc[nH]c23)cc1Cl`, the melting point was in the range of 316 to 319 °C.

In the case of `CN(C)CCC1CCc2cc(OCc3cc4ccccc4o3)ccc2C1` (single isomer, unassigned; (+)), the melting point lay within 75 to 77 °C.

In the case of `CN(C)C(=N[N+](=O)[O-])N(C)Cc1cnc(Cl)s1`, the melting point was 101 to 102 °C. The result for `COC(=O)CCCc1cc2nc(Cl)ccc2n1S(=O)(=O)c1ccc(C(C)C)cc1` reads 75 °C. Molecule `N#CC1(c2cccs2)C2CC3CC(C2)CC1C3` (stereo not drawn) displayed a melting point of 108 to 110 °C.

`BrCc1cccc2c(-c3ccc(Br)cc3)onc12` yielded a melting point of 159 to 161 °C.

`CN1C(=O)NCc2cc(Br)cnc21` returned a melting point of 216 to 217 °C.

Turning to `COc1cc2c(cc1O)CCN(C(C)=O)C2`, the melting point was 139 to 140 °C. In the case of `CNC(=O)c1cc(-c2ccc(SC)cc2)nn(CC2CC2)c1=O` it was 116 to 118 °C; in that of `CC1(N)CN(c2c(F)c(N)c3c(=O)c(C(=O)O)cn(C4CC4)c3c2F)C1`, 243 to 247 °C.

In turn, `COc1cc(C(C)=O)ccc1SCCCN1CCC(c2noc3cc(F)ccc23)CC1` gave a melting point of 93 to 95 °C. In turn, `O=C(c1ccccc1)N1CCN(c2ccc3nc4[nH]c(=O)[nH]c4cc3c2)CC1` returned a melting point above 300 °C. In the case of `CN(C)CCCNC1=C2N=c3cc(Cl)ccc3=C2Oc2ccccc2N1C` it was 156 to 157 °C; in that of `CCN(CC)C(=O)Oc1cc(-c2cccc(Cl)c2)nc2ccccc12`, 83 °C; in that of `O=C(Nc1ccc(OCCN2CCOCC2)c2ccccc12)c1ccc2snnc2c1`, 188 to 190 °C. As to `CC(=O)NCc1ccc(C(=O)CCCN2CCC(c3noc4cc(F)ccc34)CC2)s1`, the melting point was 140 to 142 °C.

As for `CSc1ccc(C(=O)c2ccc(SC)cc2O)cc1`, the melting point is 113 to 114 °C. The result for `CSc1ccc([N+](=O)[O-])c(C#N)c1` reads 112 to 113 °C. Molecule `CNC(=C[N+](=O)[O-])NCc1ccc(Cl)nc1` yielded a melting point of 181 to 183 °C. The result for `CCOC(=O)C(=O)Oc1cccc(-c2cn3c(n2)sc2ccccc23)c1` reads 120 to 121 °C. The result for `CS(=O)(=O)Nc1cc([C@@H](O)CNC2CCN(c3ccc(CCC(=O)O)cc3)CC2)ccc1O` reads 130 to 133 °C; that for `Cc1ccc(S(=O)(=O)n2cc([C@@H]3C[C@H]3C=O)c3cc(C#N)ccc32)cc1` (relative stereo), 165 to 167 °C; that for `CC(O)c1nnc2n1-c1sc(Cl)cc1C(c1ccccc1Cl)=NC2` (stereo not drawn), 118 to 120 °C. The result for `N#CC1(c2ccc(F)cc2)CCC(N2CCC(C(=O)O)(c3ccccc3)CC2)CC1` (stereo not drawn) reads 281 °C. `Cn1c(=O)c2c(nc(Cl)n2Cc2ccccc2Br)n(C)c1=O` came in with a melting point of 165 to 167 °C.
